The text below walks through data of publication PMC7932555, “A diffusible signal factor of the intestine dictates Salmonella invasion through its direct control of the virulence activator HilD” (PLoS Pathogens, 2021).

Positions count from the first letter of the chain named.

Holding throughout (experiment): HilD half-life (degradation) assay by western blot
What all share (assay type): cell-based
For orientation: In western blotting, separated proteins are transferred to a membrane and probed.

The target in assay [1] is T1, HilD (Salmonella typhimurium, UniProt P0CL08).
T1 construct: hilD with a C-terminal 3XFLAG tag was cloned into pWSK29 under control of the tetRA promoter; expressed in transfected cells; host or cells: Salmonella Typhimurium strain carrying pWSK29-PtetRA-hilD-3XFLAG (background with chromosomal hilD, hilC and rtsA null)
T1 sequence (P0CL08 1-309): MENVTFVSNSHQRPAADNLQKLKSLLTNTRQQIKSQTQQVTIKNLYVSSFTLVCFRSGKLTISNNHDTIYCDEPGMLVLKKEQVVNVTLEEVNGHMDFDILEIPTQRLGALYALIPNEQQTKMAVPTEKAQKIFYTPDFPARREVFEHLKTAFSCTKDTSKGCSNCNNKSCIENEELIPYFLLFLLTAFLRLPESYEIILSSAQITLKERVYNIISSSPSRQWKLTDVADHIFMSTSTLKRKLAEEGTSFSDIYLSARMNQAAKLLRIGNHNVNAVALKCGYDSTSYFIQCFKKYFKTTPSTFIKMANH
The note with it: wild type HilD-3XFLAG; grown with 20 μM fatty acid for two hours, protein expression halted. As to the method:
(§1) The HilD half-life was assessed as previously described. Salmonella strains having plasmids with tetracycline-inducible hilD or its mutated sequence with a C-terminal 3XFLAG tag and a sipB::lacZ fusion (for invasion gene expression assessment) were grown overnight and then diluted 1:100 into LB buffered with 100 mM MOPS (pH 6.7) with appropriate antibiotics and fatty acids or control solvents. After 2 hours of growth, aliquots were collected to quantitate sipB::lacZ expression in a β-galactosidase assay. Individual cultures were then equilibrated to an OD600 of 1.0 to ensure equal density at the half-life assay beginning point. New protein production was halted by addition of a cocktail of antibiotics (rifampin, streptomycin and spectinomycin). These cultures were incubated at 37°C and aliquots were collected every 30 minutes for 2 hours. Samples were lysed in 5X sample buffer, boiled, and immunoblotted with an anti-FLAG antibody to monitor HilD.

Assay [2] deals with T2, HilD (Salmonella typhimurium, UniProt P0CL08, N44A).
T2 construct: hilD with a C-terminal 3XFLAG tag was cloned into pWSK29 under control of the tetRA promoter; expressed in transfected cells; host or cells: Salmonella Typhimurium strain carrying pWSK29-PtetRA-hilD-3XFLAG (background with chromosomal hilD, hilC and rtsA null)
T2 sequence (P0CL08 1-309 N44A): T1 sequence (P0CL08 1-309) with N44A
The note with it: HilD N44A-3XFLAG; 20 μM fatty acid. As to the method:
as §1

For assay [3], the target named is T3, HilD (Salmonella typhimurium, UniProt P0CL08, K43A).
T3 construct: hilD with a C-terminal 3XFLAG tag was cloned into pWSK29 under control of the tetRA promoter; expressed in transfected cells; host or cells: Salmonella Typhimurium strain carrying pWSK29-PtetRA-hilD-3XFLAG (background with chromosomal hilD, hilC and rtsA null)
T3 sequence (P0CL08 1-309 K43A): T1 sequence (P0CL08 1-309) with K43A
The note with it: HilD K43A-3XFLAG; 20 μM fatty acid. How it is done: as §1

Assay [4] has as its target T4, HilD (Salmonella typhimurium, UniProt P0CL08, K294A).
T4 construct: hilD with a C-terminal 3XFLAG tag was cloned into pWSK29 under control of the tetRA promoter; expressed in transfected cells; host or cells: Salmonella Typhimurium strain carrying pWSK29-PtetRA-hilD-3XFLAG (background with chromosomal hilD, hilC and rtsA null)
T4 sequence (P0CL08 1-309 K294A): T1 sequence (P0CL08 1-309) with K294A
The note with it: HilD K294A-3XFLAG; 20 μM fatty acid. How it is done: as §1

Assay [5] concerns the target T5, HilD (Salmonella typhimurium, UniProt P0CL08, K293A).
T5 construct: hilD with a C-terminal 3XFLAG tag was cloned into pWSK29 under control of the tetRA promoter; expressed in transfected cells; host or cells: Salmonella Typhimurium strain carrying pWSK29-PtetRA-hilD-3XFLAG (background with chromosomal hilD, hilC and rtsA null)
T5 sequence (P0CL08 1-309 K293A): T1 sequence (P0CL08 1-309) with K293A
The note with it: HilD K293A-3XFLAG; 20 μM fatty acid. As to the method: as §1

The target of assay [6] is T6, HilD (Salmonella typhimurium, UniProt P0CL08, Q290A).
T6 construct: hilD with a C-terminal 3XFLAG tag was cloned into pWSK29 under control of the tetRA promoter; expressed in transfected cells; host or cells: Salmonella Typhimurium strain carrying pWSK29-PtetRA-hilD-3XFLAG (background with chromosomal hilD, hilC and rtsA null)
T6 sequence (P0CL08 1-309 Q290A): T1 sequence (P0CL08 1-309) with Q290A
The note with it: HilD Q290A-3XFLAG; 20 μM fatty acid. As to the method:
as §1

As for `CCCCCCCCCCCCC/C=C\C(=O)O` [c2-HDA, cis-2-hexadecenoic acid], the HilD degradation entry on HilD [1] was “Rapid degradation”; at HilD [2] it was “protected from degradation”; on HilD [3] it was “degraded as rapidly as wild type HilD”; at HilD [4] it was “protected from degradation”; at HilD [5] it was “protected from degradation”; at HilD [6] it was “degraded as rapidly as wild type HilD”.

On to `CCCCCCCCCCCCC/C=C/C(=O)O` [t2-HDA, trans-2-hexadecenoic acid], for which the HilD degradation entry at HilD [1] is reported as “degraded”; on HilD [2], “escaped degradation”; at HilD [3], “escaped degradation”; at HilD [4], “rapidly degraded”; on HilD [5], “rapidly degraded”; on HilD [6], “escaped degradation”.
